We go through 1 substance from patent US6667034B2, “METHODS FOR REGULATING THE SPECIFIC LINEAGES OF CELLS PRODUCED IN A HUMAN HEMATOPOIETIC CELL CULTURE, METHODS FOR ASSAYING THE EFFECT OF SUBSTANCES ON LINEAGE-SPECIFIC CELL PRODUCTION, AND CELL COMPOSITIONS PRODUCED BY THESE CULTURES” (The Regents of the University of Michigan, priority 1989, dated 2003).

Holding throughout (format): cell-based
The test system of assay [1] is Human bone marrow cells. As to the kind of experiment: Population balance: cumulative production of CFU-GM removed and differentiated in HGF supplemented LTBMCs (Example 5, Table 7). An excerpt:
(§1) Production of Progenitor Cells from Stem Cells. Although the most primitive hematopoietic cells that can be directly assayed are the progenitor cells; CFU-GEMM, CFU-GM, and BFU-E, the presence and activity or earlier stem cells can be inferred by the continued production of progenitor cells. Thus, progenitor cell production is an indirect measure of primitive stem cell activity. One can assay stem cells, therefore, by analyzing the kinetics of the progenitor cell pool. The four process rates that determine the progenitor cell pool size are: V1: The rate of production of progenitor cells by more undifferentiated stem cells; V2: The rate of loss of progenitor cells through the act of sampling of nonadherent cells from the culture; V3: The rate of loss of progenitor cells by their differentiation to mature cells of a particular lineage; V4: The rate of death of progenitor cells. The initial number, C0, of each progenitor cell species can be determined by assay at culture initiation. The question that we wish to answer is; Are stem cells being stimulated to produced progenitor cells—i.e. is V1 greater than zero? Cell death, V4, cannot be assessed. V2 however, can be measured by assaying the nonadherent cells removed from culture, and V3 can be estimated from nonadherent cell production data. A conservative estimate of the rate of progenitor cell differentiation, V3, can be determined by assuming that each progenitor cell has 10 divisions remaining to become a terminally differentiated cell. Therefore, each progenitor cell is equivalent to 2^10 (1024) mature cells. From the total number of mature cells produced of a specific lineage, the number of progenitor cells (BFU-E and CFU-GM) that differentiated can be back-calculated. Therefore, if the removal and differentiation of progenitor cells (V2+V3) exceeds the numbers of progenitor cells inoculated, Co, then progenitor cells must have been produced, and V1 is greater than zero.

Assay [2] relates to Human bone marrow cells. As to the kind of experiment: Cumulative number of progenitor cells removed from rapidly perfused HGF supplemented LTBMCs (Example 5, Table 5). As for the experimental part:
Hematopoietic progenitor cell assay: Nonadherent hematopoietic cells removed from culture were counted and plated at 1·10^5 cells/ml or fewer cells in methylcellulose. GM-CSF and Epo were added to the methylcellulose at 20 ng/ml and 2 U/ml, respectively. The cells were plated in 24 well plates at 0.25 ml/well and incubated at 37° C. for 14 days. The colonies were then counted under an inverted microscope and colonies greater than 50 cells were scored as GM-colony forming units (CFU-GM), erythroid burst-forming unit (BFU-E), or granulocyte erythroid megakaryocyte macrophage-colony forming unit (CFU-GEMM). Cells, hematopoietic progenitor cell assays, LTBMCs, and statistical analyses were as in Example 1.

In assay [3] the test system is Human bone marrow cells. As to the kind of experiment: Cumulative cell production by cell lineage in growth factor supplemented LTBMCs over the first 6.5 weeks (Example 5, Table 4). Conditions: first 6.5 weeks of culture. An excerpt:
Cells, hematopoietic progenitor cell assays, LTBMCs, and statistical analyses were as in Example 1.

Assay [4] has as its system Human bone marrow cells. In words: Population balance: cumulative production of BFU-E removed and differentiated in HGF supplemented LTBMCs (Example 5, Table 6).
Excerpt: as §1

Where [5] appears, read: back-calculated assuming each progenitor cell is equivalent to 2^10 (1024) mature cells.
Where [6] appears, read: cumulative, rapidly perfused LTBMCs.
Setting [7] is: rapidly perfused HGF supplemented LTBMCs.
Where [8] appears, read: IL-3 1 ng/ml, GM-CSF 1 ng/ml, Epo 0.1 U/ml, IL-6 10 U/ml, G-CSF 0.1 ng/ml.

In the case of “GM-CSF: hematopoietic growth factor, 1 ng/ml (Amgen Biologicals, Cat. No. 13050)”, the “Estimated number of CFU-GM that differentiated (V3)” value in assay [1] (setting [5]) is reported as 11,700. In addition, the “Number of GM cells removed (×10^4) (V3)” value in assay [1] (setting [6]) is recorded as 11.7 ×10^4. In addition, the “Number of CFU-GM removed (plated) (V2)” value in assay [1] (every fourth biweekly sampling assayed, others by linear interpolation, inoculum 2500 CFU-GM) was determined as 2200. The “Total number of CFU-GM (V3)” value in assay [1] (removed plus differentiated) is reported as 13,900. For the same substance, the “increase in the total number of CFU-GEMM removed from culture” value in assay [2] (setting [6]) was found to be 1.6 fold. Also, the “effect on total CFU-GM” value in assay [2] (individual growth factor) is on record as “only a slight increase”. Also, in assay [2] (setting [7]), the “cumulative number of progenitor cells removed: BFU-E” value was determined as 800, the “cumulative number of progenitor cells removed: CFU-GEMM” value was found to be 80 and the “cumulative number of progenitor cells removed: CFU-GM” value is listed as 2200. In assay [3] (setting [8]), the “Cumulative cell production: Early Granulocytes (EG)” value is recorded as 2.7 ×10^6 cells per culture, the “Cumulative cell production: Erythroid (E)” value is 0.11 ×10^6 cells per culture, the “Cumulative cell production: Late Granulocytes (LG)” value is recorded as 6.8 ×10^6 cells per culture and the “Cumulative cell production: Macrophages (Mo)” value is given as 2.1 ×10^6 cells per culture. Besides, the “ratio (LG/EG)” value in assay [3] (late to early granulocytes) was 2.5. In assay [4] (setting [5]), the “Estimated number of BFU-E that differentiated (V3)” value is 100. Also, the “Number of erythroid cells removed (×10^4) (V3)” value in assay [4] (setting [6]) is recorded as 0.1 ×10^4. The “Number of BFU-E removed (plated) (V3)” value in assay [4] (every fourth biweekly sampling assayed, others by linear interpolation, inoculum 2900 BFU-E) is 800. Moreover, the “Total number of BFU-E (V3)” value in assay [4] (removed plus differentiated, inoculum 2900) was found to be 900.
